The text below walks through data of patent US10028961B2, “Therapeutically active compounds and their methods of use” (AGIOS PHARMACEUTICALS, INC., priority 2013, dated 2018).

Assay [1] concerns U87MG pLVX-IDH2 R140Q-neo cells. Briefly: U87MG pLVX-IDH2 R140Q-neo cell based assay, 2-HG by LC-MS. Conditions: Homo sapiens, U-87 MG.
The subject of assay [2] is HT1080 cells. Nature of the assay: Cellular assay for IDH1m R132C inhibitors, 2-HG by LC-MS in HT1080 cells. Type of assay: cell-based. Conditions: Homo sapiens, HT-1080. As to the method:
The following describes the experimental procedures that can be used to obtain data on column 5 of Table 4.
Cells (HT1080 or U87MG) are grown in T125 flasks in DMEM containing 10% FBS, 1× penicillin/streptomycin and 500 ug/mL G418 (present in U87MG cells only). They are harvested by trypsin and seeded into 96 well white bottom plates at a density of 5000 cell/well in 100 ul/well in DMEM with 10% FBS. No cells are placed in columns 1 and 12. Cells are incubated overnight at 37° C. in 5% CO2. The next day test compounds are made up at 2× the final concentration and 100 ul are added to each cell well. The final concentration of DMSO is 0.2% and the DMSO control wells are plated in row G. The plates are then placed in the incubator for 48 hours. At 48 hours, 100 ul of media is removed from each well and analyzed by LC-MS for 2-HG concentrations. The cell plate is placed back in the incubator for another 24 hours. At 72 hours post compound addition, 10 mL/plate of Promega Cell Titer Glo reagent is thawed and mixed. The cell plate is removed from the incubator and allowed to equilibrate to room temperature. Then 100 ul of Promega Cell Titer Glo reagent is added to each well of media. The cell plate is then placed on an orbital shaker for 10 minutes and then allowed to sit at room temperature for 20 minutes. The plate is then read for luminescence with an integration time of 500 ms.
HT1080 cells are maintained in RPMI containing 10% FBS, 1× penicillin/streptomycin. […] The next day compounds are prepared in 100% DMSO and then diluted in media for a final concentration of 0.2% DMSO. Media is removed from the cell plates and 200 μL of the compound dilutions are added to each well. […] The cell plates are then allowed to incubate another 24 hours.

Assay [3] deals with Neurosphere cells (TS603). Nature of the assay: Cellular assay for IDH1m R132H inhibitors, 2-HG by LC-MS in neurosphere cells (TS603). Type of assay: cell-based. Conditions: 2-HG in media at 48 hours. The method, boiled down:
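TS603 neurosphere cells in NeuroCult medium were dosed with compound (0.25% DMSO final) at 37 C, 5% CO2. After 48 hours, medium 2-HG was measured by LC-MS. At 72 hours, viability was read by CellTiter-Glo luminescence.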

Assay [4] deals with IDH1 wt/IDH1 R132H heterodimer (Homo sapiens (Human), UniProt O75874, R132H). Briefly: In vitro assay for IDH1m R132H inhibitors, IDH1 wt/IDH1 R132H heterodimer, NADPH depletion (diaphorase/resazurin). Type of assay: biochemical. The method, boiled down: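 Purified IDH1wt-his/IDH1R132H-flag heterodimer (sf9 co-expression) pre-incubated 1 hr at room temperature with compound and NADPH before α-KG addition. Remaining NADPH read by diaphorase/resazurin conversion to fluorescent resorufin, 5 min at 25° C. Compounds diluted 1:50 from DMSO; IC50 determined.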

Assay [5] deals with IDH2 R140Q (Homo sapiens (Human), UniProt P48735, R140Q). Briefly: In vitro assay for IDH2m R140Q inhibitors, cofactor depletion assay. Type of assay: biochemical. Conditions: IDH2 R140Q enzyme. The method, boiled down:
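Remaining cofactor measured fluorimetrically: diaphorase/resazurin Stop Mix […], halting the reaction. Before that, mutant enzyme and compound sat 1 h at RT, then substrate mix (4 μM NADPH, 1.6 mM α-KG) was added for 16 h at RT.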

Where [6] appears, read: IDH1 wt/R132H heterodimer, NADPH/NADP, not saturated, read-out: IDH1 wt/R132H NADPH/NADP IC50 not saturated.
[7] abbreviates: IDH1 wt/IDH1 R132H heterodimer, 300 μM NADP (saturated), read-out: IDH1 wt/R132H NADPH/NADP IC50 saturated.

Like-named read-outs stand apart in the source and are kept apart here.

Sequence of IDH2 R140Q (P48735 40-452 R140Q): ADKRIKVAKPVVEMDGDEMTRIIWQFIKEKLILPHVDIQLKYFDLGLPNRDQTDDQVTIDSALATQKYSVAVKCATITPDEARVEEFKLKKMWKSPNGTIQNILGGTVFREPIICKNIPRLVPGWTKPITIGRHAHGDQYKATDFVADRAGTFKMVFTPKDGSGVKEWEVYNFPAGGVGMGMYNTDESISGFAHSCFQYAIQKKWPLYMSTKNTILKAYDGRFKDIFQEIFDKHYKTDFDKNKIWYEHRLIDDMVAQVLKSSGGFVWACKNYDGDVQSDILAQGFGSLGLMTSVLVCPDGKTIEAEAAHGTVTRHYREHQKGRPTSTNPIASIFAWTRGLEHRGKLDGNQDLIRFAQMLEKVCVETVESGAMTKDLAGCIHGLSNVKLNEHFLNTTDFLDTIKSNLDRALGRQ
Sequence of IDH1 wt/IDH1 R132H heterodimer (O75874 whole entry R132H): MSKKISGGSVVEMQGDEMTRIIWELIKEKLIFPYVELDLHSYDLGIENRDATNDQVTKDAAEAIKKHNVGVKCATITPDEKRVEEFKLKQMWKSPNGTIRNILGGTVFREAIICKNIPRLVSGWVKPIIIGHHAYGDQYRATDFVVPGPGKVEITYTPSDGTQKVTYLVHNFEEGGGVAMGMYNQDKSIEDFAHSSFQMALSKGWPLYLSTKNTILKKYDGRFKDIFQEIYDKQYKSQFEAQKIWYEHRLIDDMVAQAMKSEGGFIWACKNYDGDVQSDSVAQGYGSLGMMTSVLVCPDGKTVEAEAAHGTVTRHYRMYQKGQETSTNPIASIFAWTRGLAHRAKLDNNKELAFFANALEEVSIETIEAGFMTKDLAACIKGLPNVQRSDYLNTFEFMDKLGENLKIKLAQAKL
Sequence of IDH1 wt/IDH1 R132H heterodimer (O75874 whole entry, stated change not applied): as the sequence (O75874 whole entry R132H) above, with H132R counted along it

`C[C@@H](Nc1nc(N[C@H](C)C(F)(F)F)nc(-c2cccc(Cl)n2)n1)C(F)(F)F` [Compound 101]: the IC50 in assay [1], in assay [2] and in assay [3] was below 50 nM in each case.

Take `C[C@@H](Nc1nc(N[C@H](C)C(F)(F)F)nc(-c2csc(C(F)(F)F)n2)n1)C(F)(F)F` [Compound 114]: the IC50 in assay [4] (setting [6]), in assay [5], in assay [1], in assay [2] and in assay [3] was below 50 nM in each case.

For the molecule `C[C@H](Nc1nc(N[C@H](C)C(F)(F)F)nc(-c2cccc(Cl)n2)n1)C(F)(F)F` [Compound 136], the IC50 in assay [1], in assay [2] and in assay [3] was below 50 nM each time.

In the case of `C[C@H](Nc1nc(N[C@@H](C)C(F)(F)F)nc(-c2cccc(Cl)n2)n1)C(F)(F)F` [Compound 142], the IC50 in assay [1], in assay [2] and in assay [3] was below 50 nM throughout.

On to `COc1ccc2c(c1)CC(Nc1nc(NC3CCC(F)(F)C3)nc(-c3cccc(C(F)(F)F)n3)n1)C2` (centres unmarked) [Compound 166], for which the IC50 in assay [4] (setting [6]) is below 50 nM; in assay [2], 100 to 1000 nM; in assay [3] it was below 50 nM.

Take `FC1(F)CCC(Nc2nc(NC3Cc4cccnc4C3)nc(-c3cccc(C(F)(F)F)n3)n2)C1` (centres unmarked) [Compound 188]: the IC50 in assay [4] (setting [6]), in assay [2] and in assay [3] was below 50 nM in each case.

For `CC(F)(F)c1cccc(-c2nc(NC3CCC(F)(F)CC3)nc(NC3CCC(F)(F)CC3)n2)n1` [Compound 218], the IC50 in assay [4] (setting [6]) is below 50 nM; in assay [5], below 50 nM; in assay [1], below 50 nM; in assay [2], 100 to 1000 nM; in assay [3] it was below 50 nM.

For `CC(C)(O)CNc1nc(Nc2cc(F)cc(F)c2)nc(-n2ccc(C(F)(F)F)n2)n1` [Compound 235], the IC50 was below 50 nM in assay [4] (setting [6]); below 50 nM in assay [5]; below 50 nM in assay [1]; 100 to 1000 nM in assay [2]; below 50 nM in assay [3].

Consider `FC1(F)CCC(Nc2nc(NC3CCC(F)(F)C3)nc(-c3cccc(C4CC4)n3)n2)C1` (centres unmarked) [Compound 258], for which the IC50 in assay [4] (setting [6]) is 100 to 1000 nM; in assay [1], below 50 nM; in assay [2] it was above 1000 nM.

With `C[C@@H](Nc1nc(Nc2ccnc(C3(C#N)CC3)c2)nc(-c2cncc(C(F)(F)F)n2)n1)C(F)(F)F` [Compound 377], the IC50 in assay [4] (setting [7]) was below 50 nM; in assay [5], below 50 nM; in assay [1], below 50 nM; in assay [2], 100 to 1000 nM; in assay [3], below 50 nM.

For the molecule `N#CC1(c2cc(Nc3nc(N[C@@H]4CCC(F)(F)C4)nc(-c4cncc(C(F)(F)F)n4)n3)ccn2)CC1` [Compound 378], the IC50 is below 50 nM in assay [4] (setting [7]); below 50 nM in assay [5]; below 50 nM in assay [1]; 50 to 100 nM in assay [2]; below 50 nM in assay [3].

For `N#Cc1cc(Nc2nc(N[C@H]3CCC(F)(F)C3)nc(-n3ccc(C(F)(F)F)n3)n2)ccn1` [Compound 381], the IC50 in assay [4] (setting [7]) was below 50 nM; in assay [5], below 50 nM; in assay [1], below 50 nM; in assay [2], 100 to 1000 nM; in assay [3] it was below 50 nM.

Consider `CC(F)(F)c1cccc(-c2nc(Nc3ccnc(C4(C#N)CC4)c3)nc(NC3CCC(F)(F)C3)n2)n1` (centres unmarked) [Compound 384], for which the IC50 in assay [4] (setting [7]) was below 50 nM; in assay [5] it was below 50 nM; in assay [1], below 50 nM; in assay [2] it was 100 to 1000 nM; in assay [3], below 50 nM.

With `N#CC1(c2cc(Nc3nc(NC4CC5(C4)CC(F)(F)C5)nc(-c4cncc(C(F)(F)F)n4)n3)ccn2)CC1` [Compound 385], the IC50 in assay [4] (setting [7]) was 50 to 100 nM; in assay [5], below 50 nM; in assay [1] it was below 50 nM; in assay [2], 100 to 1000 nM; in assay [3] it was below 50 nM.

Regarding `C[C@@H](Nc1nc(N[C@H](C)C(F)(F)F)nc(-c2cncc(C(F)(F)F)n2)n1)C(F)(F)F` [Compound 386], the IC50 in assay [4] (setting [7]), in assay [5], in assay [1], in assay [2] and in assay [3] was below 50 nM throughout.

In the case of `FC1(F)CC(Nc2nc(Nc3ccnc(C(F)(F)F)c3)nc(-c3nc(C(F)(F)F)cs3)n2)C1` [Compound 388], the IC50 in assay [4] (setting [7]) is below 50 nM; in assay [5], below 50 nM; in assay [1] it was below 50 nM; in assay [2] it was 50 to 100 nM; in assay [3], below 50 nM.

In the case of `FC1(F)CC(Nc2nc(Nc3ccnc(C(F)(F)F)c3)nc(-c3cncc(C(F)(F)F)n3)n2)C1` [Compound 390], the IC50 in assay [4] (setting [7]) is 50 to 100 nM; in assay [5] it was below 50 nM; in assay [1], below 50 nM; in assay [2] it was 100 to 1000 nM; in assay [3], below 50 nM.

As for `N#CC1(c2cc(Nc3nc(NC4CCC(F)(F)CC4)nc(-c4cncc(C(F)(F)F)n4)n3)ccn2)CC1` [Compound 394], the IC50 is below 50 nM in assay [4] (setting [7]); below 50 nM in assay [5]; below 50 nM in assay [1]; 100 to 1000 nM in assay [2]; below 50 nM in assay [3].

Take `FC(F)c1csc(-c2nc(NC3CCC(F)(F)C3)nc(NC3CCC(F)(F)C3)n2)n1` (centres unmarked) [Compound 402]: the IC50 was 50 to 100 nM in assay [4] (setting [7]); below 50 nM in assay [5]; below 50 nM in assay [1]; below 50 nM in assay [2]; below 50 nM in assay [3].

With `FC(F)c1csc(-c2nc(NC3CC(F)(F)C3)nc(NC3CC(F)(F)C3)n2)n1` [Compound 403], the IC50 in assay [4] (setting [7]), in assay [5], in assay [1], in assay [2] and in assay [3] was below 50 nM in each case.

For `CC(Nc1nc(NC(C)C(F)(F)F)nc(-c2nc(C(F)(F)F)cs2)n1)C(F)(F)F` (centres unmarked) [Compound 404], the IC50 in assay [4] (setting [7]), in assay [5], in assay [1], in assay [2] and in assay [3] was below 50 nM in each case.

Take `FC1(F)CCC(Nc2nc(Nc3cncc(C(F)(F)F)c3)nc(-c3cccc(C(F)(F)F)n3)n2)C1` (centres unmarked) [Compound 405]: the IC50 in assay [4] (setting [7]) was 50 to 100 nM; in assay [5] it was below 50 nM; in assay [1], below 50 nM; in assay [2] it was 50 to 100 nM; in assay [3] it was below 50 nM.

With `FC(F)(F)c1cc(Nc2nc(NCC3CC3)nc(-n3ccc(C(F)(F)F)n3)n2)ccn1` [Compound 407], the IC50 in assay [4] (setting [7]) is 100 to 1000 nM; in assay [5] it was below 50 nM; in assay [1], below 50 nM; in assay [2], 100 to 1000 nM; in assay [3], below 50 nM.

Turning to `FC(F)c1cncc(-c2nc(NC3CCC(F)(F)C3)nc(NC3CCC(F)(F)C3)n2)n1` (centres unmarked) [Compound 408], the IC50 in assay [4] (setting [7]), in assay [5], in assay [1], in assay [2] and in assay [3] was below 50 nM in each case.

For `FC(F)c1cncc(-c2nc(NC3CC(F)(F)C3)nc(NC3CC(F)(F)C3)n2)n1` [Compound 409], the IC50 in assay [4] (setting [7]), in assay [5], in assay [1], in assay [2] and in assay [3] was below 50 nM throughout.

Take `FC(F)c1ccnc(-c2nc(NC3CC(F)(F)C3)nc(NC3CC(F)(F)C3)n2)n1` [Compound 411]: the IC50 was 100 to 1000 nM in assay [4] (setting [7]); 50 to 100 nM in assay [5]; 50 to 100 nM in assay [1]; 100 to 1000 nM in assay [2]; below 50 nM in assay [3].

Consider `FC(F)c1ccnc(-c2nc(NC3CCC(F)(F)C3)nc(NC3CCC(F)(F)C3)n2)n1` (centres unmarked) [Compound 412], for which the IC50 in assay [4] (setting [7]) was 100 to 1000 nM; in assay [1], 50 to 100 nM; in assay [2], 100 to 1000 nM; in assay [3], below 50 nM.
